From ChEMBL document CHEMBL1138095, “From ligand to complexes: inhibition of human immunodeficiency virus type 1 integrase by beta-diketo acid metal complexes” (J Med Chem, 2006)

Key:
[1] = target: T1, Human immunodeficiency virus type 1 integrase (Human immunodeficiency virus 1, UniProt Q7ZJM1); experiment: Inhibition of HIV1 integrase 3' processing activity
[2] = target: T1, Human immunodeficiency virus type 1 integrase; experiment: Inhibition of HIV1 integrase strand transfer activity

T1 sequence (Q7ZJM1 whole entry): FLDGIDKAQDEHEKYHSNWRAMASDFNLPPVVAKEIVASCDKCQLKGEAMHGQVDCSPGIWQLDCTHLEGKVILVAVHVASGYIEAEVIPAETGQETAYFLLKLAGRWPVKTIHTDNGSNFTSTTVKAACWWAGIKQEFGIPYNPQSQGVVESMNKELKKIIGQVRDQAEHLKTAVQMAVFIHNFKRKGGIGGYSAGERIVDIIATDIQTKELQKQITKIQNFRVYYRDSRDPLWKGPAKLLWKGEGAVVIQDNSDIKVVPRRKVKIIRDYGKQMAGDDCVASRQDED

| Compound | IC50 [1] | IC50 [2] |
| --- | --- | --- |
| COC(=O)C(=O)/C=C(\O)c1ccccc1 | > 333 µM | > 333 µM |
| COC(=O)C(=O)/C=C(\O)c1cccn1Cc1ccc(F)cc1 | 187 µM | 48 µM |
